Data taken from the supplement of paper PMC10307832.

Tests used:
Test in all cases: relative viability (nuclei count vs DMSO), 5 days (fraction); higher = more cells survive
RU-SKI 43 + Foretinib = compound: CC[C@@H](C)CNCC(=O)N1CCC2=C([C@@H]1COC3=CC=CC(=C3)C)C=CS2 [RU-SKI 43] + COc1cc2c(Oc3ccc(NC(=O)C4(C(=O)Nc5ccc(F)cc5)CC4)cc3F)ccnc2cc1OCCCN1CCOCC1 [Foretinib] (partner 0.25 µM)
Method in brief: (§1)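 The day after seeding in 1536-well plates, lung cancer cell lines were treated by pin tool with a single drug, or with a fixed anchor-drug dose together with five library-drug doses (not always all listed) in √10 steps. After 5 days, a combined fix-and-stain solution (final 0.05% Triton X-100, 1% formaldehyde, 1 ug/ml Hoechst) was added. Nuclei counted on 4× images gave relative viability as treated counts over vehicle counts, reported as the median of duplicate plates.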

RU-SKI 43 + Linsitinib = compound: CC[C@@H](C)CNCC(=O)N1CCC2=C([C@@H]1COC3=CC=CC(=C3)C)C=CS2 [RU-SKI 43] + C[C@]1(O)C[C@@H](c2nc(-c3ccc4ccc(-c5ccccc5)nc4c3)c3c(N)nccn32)C1 [Linsitinib] (partner 1 µM)
Method in brief: as §1

RU-SKI 43 + Alpelisib = compound: CC[C@@H](C)CNCC(=O)N1CCC2=C([C@@H]1COC3=CC=CC(=C3)C)C=CS2 [RU-SKI 43] + Cc1nc(NC(=O)N2CCC[C@H]2C(N)=O)sc1-c1ccnc(C(C)(C)C(F)(F)F)c1 [Alpelisib] (partner 2 µM)
Method in brief: as §1

Irinotecan + Vorinostat = compound: CCc1c2c(nc3ccc(OC(=O)N4CCC(N5CCCCC5)CC4)cc13)-c1cc3c(c(=O)n1C2)COC(=O)[C@]3(O)CC [Irinotecan] + O=C(CCCCCCC(=O)Nc1ccccc1)NO [Vorinostat] (partner 1 µM)
Method in brief: as §1

**Q.** Which results are given for UMC-11?
**A.** relative viability (RU-SKI 43 + Foretinib; first compound 0.1 µM): 1.07; relative viability (RU-SKI 43 + Foretinib; first compound 0.3162 µM): 1.14; relative viability (RU-SKI 43 + Foretinib; first compound 1 µM): 1.05; relative viability (RU-SKI 43 + Foretinib; first compound 3.162 µM): 1.14; relative viability (RU-SKI 43 + Foretinib; first compound 10 µM): 1.03; relative viability (RU-SKI 43 + Linsitinib; first compound 0.1 µM): 1.11; relative viability (RU-SKI 43 + Linsitinib; first compound 0.3162 µM): 1.21; relative viability (RU-SKI 43 + Linsitinib; first compound 1 µM): 1.07; relative viability (RU-SKI 43 + Linsitinib; first compound 3.162 µM): 1.04; relative viability (RU-SKI 43 + Linsitinib; first compound 10 µM): 1.07; relative viability (RU-SKI 43 + Alpelisib; first compound 0.1 µM): 1.06; relative viability (RU-SKI 43 + Alpelisib; first compound 0.3162 µM): 1.18; relative viability (RU-SKI 43 + Alpelisib; first compound 1 µM): 1.16; relative viability (RU-SKI 43 + Alpelisib; first compound 3.162 µM): 1.04; relative viability (RU-SKI 43 + Alpelisib; first compound 10 µM): 0.901; relative viability (Irinotecan + Vorinostat; first compound 0.6325 µM): 0.262; relative viability (Irinotecan + Vorinostat; first compound 2 µM): 0.343; relative viability (Irinotecan + Vorinostat; first compound 6.325 µM): 0.235; relative viability (Irinotecan + Vorinostat; first compound 20 µM): 0.206
